{"source": "patent US10188634B2", "about": "“3-(3H-imidazo[4,5-C]pyridin-2-yl)-1 H-pyrazolo[4,3-B]pyridines and therapeutic uses thereof” (Samumed, LLC, priority 2015, dated 2019)", "tested_on": "primary human mesenchymal stem cells (hMSCs)", "test": "Induction of chondrogenesis in primary human mesenchymal stem cells (hMSCs), nodule imaging with Rhodamine B / Nile Red", "type": "cell-based", "details": "for Emax: hMSCs chondrogenesis, TGF-β3 (10 ng/mL) as positive control, read-out: Max. Activity as % TGF-β3 activity; for EC50: hMSCs, concentration required to induce 50% levels of chondrogenesis vs TGF-β3 positive control, read-out: Conc (nM) of 50% TGF-β3 activity", "protocol": "Representative compounds were screened using primary human mesenchymal stem cells (hMSCs) to determine their ability to induce chondrogenesis (process by which cartilage is developed).\nHuman Mesenchymal Stem Cell Culture: Primary human mesenchymal stem cells (hMSCs) were purchased from Lonza (Walkersville, Md.) and expanded in Mesenchymal Stem Cell Growth Media (Lonza). Cells between passage 3 and 6 were used for the experiments.\nCompound Screening: Each compound was dissolved in DMSO as a 10 mM stock and used to prepare compound source plates. For the 96 well assay, serial dilution (1:3, 6-point dose-response curves from 2700 nM to 10 nM) and compound transfer was performed using the ECHO 550 (Labcyte, Sunnyvale, Calif.) into 96-well clear bottom assay plates (Greiner Bio-One) with appropriate DMSO backfill for a final DMSO concentration of 0.03%. hMSCs were plated at 20,000 cells/well in 250 μL/well Incomplete Chondrogenic Induction Medium (Lonza; DMEM, dexamethasone, ascorbate, insulin-transferrin-selenium [ITS supplement], gentamycin-amphotericin [GA-1000], sodium pyruvate, proline and L-glutamine). TGF-β3 (10 ng/mL) was used as a positive control for differentiation while negative control wells were treated with 75 nL DMSO for normalization and calculating EC50 values. For the 384 well assay, serial dilution (1:3, 8-point dose-response curves from 5000 nM to 2.2 nM) and compound transfer was performed using the ECHO 550 (Labcyte, Sunnyvale, Calif.) into 384-well clear bottom assay plates (Greiner Bio-One) with appropriate DMSO backfill for a final DMSO concentration of 0.03%. hMSCs were plated at 8,000 cells/well in 80 μL/well Incomplete Chondrogenic Induction Medium (Lonza; DMEM, dexamethasone, ascorbate, insulin-transferrin-selenium [ITS supplement], gentamycin-amphotericin [GA-1000], sodium pyruvate, proline and L-glutamine). TGF-β3 (10 ng/mL) was used as a positive control for differentiation while negative control wells were treated with 25 nL DMSO for normalization and calculating EC50 values. Cells were incubated at 37° C. and 5% CO2 for 6 days. To image chondrogenic nodules, the cells were fixed using 4% formaldehyde (Electron Microscopy Sciences), and stained with 2 μg/mL Rhodamine B (Sigma-Aldrich) and 20 μM Nile Red (Sigma-Aldrich) [Johnson K., et.al, A Stem Cell-Based Approach to Cartilage Repair, Science, (2012), 336(6082). 717-721]. The nodules imaged (25 images per well for 96 well plates and 9 images per well for 384 well plates at 10× magnification) by excitation at 531 nm and emission at 625 nm and quantified using the CellInsight CX5 (Thermo Scientific). Area of nodules in each well was normalized to the average of 3 DMSO treated wells on the same plate using Excel (Microsoft Inc.). The normalized averages (fold change over DMSO) of 2 or 3 replicate wells for each compound concentration were calculated. Due to solubility limitations of some of the compounds, curve fitting was incomplete leading to inaccurate EC50 determinations.\nUsing TGF-β3 as a positive control, the concentration of representative compounds required to induce 50% levels of chondrogenesis is reported. In addition, the maximum activity of each compound and the respective dose that each compound reached maximum chondrogenesis activity is reported."}
{"smiles": "CCC(=O)Nc1cncc(-c2ccc3[nH]nc(-c4nc5c(-c6cccc(F)c6)cncc5[nH]4)c3n2)c1", "note": "[Compound 1, N-(5-(3-(7-(3-Fluorophenyl)-3H-imidazo[4,5-c]pyridin-2-yl)-1H-pyrazolo[4,3-b]pyridin-5-yl)pyridin-3-yl)propionamide]", "values": [{"measurement": "Emax", "result": 580, "unit": "%"}, {"measurement": "EC50", "result": 1670, "unit": "nM"}]}
{"smiles": "CC(C)CC(=O)Nc1cncc(-c2ccc3[nH]nc(-c4nc5c(-c6cccc(F)c6)cncc5[nH]4)c3n2)c1", "note": "[Compound 2, N-(5-(3-(7-(3-Fluorophenyl)-3H-imidazo[4,5-c]pyridin-2-yl)-1H-pyrazolo[4,3-b]pyridin-5-yl)pyridin-3-yl)-3-methylbutanamide]", "values": [{"measurement": "Emax", "result": 53, "unit": "%"}, {"measurement": "EC50", "result": 21, "unit": "nM"}]}
{"smiles": "Fc1cccc(-c2cncc3[nH]c(-c4n[nH]c5ccc(-c6ccncc6)nc45)nc23)c1", "note": "[Compound 18, 3-(7-(3-Fluorophenyl)-3H-imidazo[4,5-c]pyridin-2-yl)-5-(pyridin-4-yl)-1H-pyrazolo[4,3-b]pyridine]", "values": [{"measurement": "Emax", "result": 51, "unit": "%"}, {"measurement": "EC50", "result": 7, "unit": "nM"}]}
{"smiles": "O=C(Nc1cncc(-c2ccc3[nH]nc(-c4nc5c(-c6ccc(F)cc6)cncc5[nH]4)c3n2)c1)C1CCC1", "note": "[Compound 49, N-(5-(3-(7-(4-Fluorophenyl)-3H-imidazo[4,5-c]pyridin-2-yl)-1H-pyrazolo[4,3-b]pyridin-5-yl)pyridin-3-yl)cyclobutanecarboxamide]", "values": [{"measurement": "Emax", "result": 33, "unit": "%"}]}
{"smiles": "Fc1ccc(-c2cncc3[nH]c(-c4n[nH]c5ccc(-c6cncnc6)nc45)nc23)cc1", "note": "[Compound 55, 3-(7-(4-Fluorophenyl)-3H-imidazo[4,5-c]pyridin-2-yl)-5-(pyrimidin-5-yl)-1H-pyrazolo[4,3-b]pyridine]", "values": [{"measurement": "Emax", "result": 125, "unit": "%"}, {"measurement": "EC50", "result": 100, "unit": "nM"}]}
{"smiles": "Nc1cncc(-c2ccc3[nH]nc(-c4nc5c(-c6ccccc6F)cncc5[nH]4)c3n2)c1", "note": "[Compound 59, 5-(3-(7-(2-Fluorophenyl)-3H-imidazo[4,5-c]pyridin-2-yl)-1H-pyrazolo[4,3-b]pyridin-5-yl)pyridin-3-amine]", "values": [{"measurement": "Emax", "result": 98, "unit": "%"}, {"measurement": "EC50", "result": 10, "unit": "nM"}]}
{"smiles": "CC(C)C(=O)Nc1cncc(-c2ccc3[nH]nc(-c4nc5c(-c6ccccc6F)cncc5[nH]4)c3n2)c1", "note": "[Compound 65, N-(5-(3-(7-(2-fluorophenyl)-3H-imidazo[4,5-c]pyridin-2-yl)-1H-pyrazolo[4,3-b]pyridin-5-yl)pyridin-3-yl)isobutyramide]", "values": [{"measurement": "Emax", "result": 181, "unit": "%"}, {"measurement": "EC50", "result": 10, "unit": "nM"}]}
{"smiles": "c1cncc(-c2ccc3[nH]nc(-c4nc5c(-c6cccnc6)cncc5[nH]4)c3n2)c1", "note": "[Compound 88, 5-(Pyridin-3-yl)-3-(7-(pyridin-3-yl)-3H-imidazo[4,5-c]pyridin-2-yl)-1H-pyrazolo[4,3-b]pyridine]", "values": [{"measurement": "Emax", "result": 84, "unit": "%"}, {"measurement": "EC50", "result": 30, "unit": "nM"}]}
{"smiles": "CC(C)C(=O)Nc1cncc(-c2ccc3[nH]nc(-c4nc5c(-c6cccnc6)cncc5[nH]4)c3n2)c1", "note": "[Compound 93, N-(5-(3-(7-(Pyridin-3-yl)-3H-imidazo[4,5-c]pyridin-2-yl)-1H-pyrazolo[4,3-b]pyridin-5-yl)pyridin-3-yl)isobutyramide]", "values": [{"measurement": "Emax", "result": 336, "unit": "%"}, {"measurement": "EC50", "result": 1670, "unit": "nM"}]}
{"smiles": "Cc1ccncc1-c1ccc2[nH]nc(-c3nc4c(-c5ccncc5)cncc4[nH]3)c2n1", "note": "[Compound 117, 5-(4-Methylpyridin-3-yl)-3-(7-(pyridin-4-yl)-3H-imidazo[4,5-c]pyridin-2-yl)-1H-pyrazolo[4,3-b]pyridine]", "values": [{"measurement": "Emax", "result": 68, "unit": "%"}, {"measurement": "EC50", "result": 30, "unit": "nM"}]}
{"smiles": "CCCC(=O)Nc1cncc(-c2ccc3[nH]nc(-c4nc5c(-c6ccncc6)cncc5[nH]4)c3n2)c1", "note": "[Compound 129, N-(5-(3-(7-(Pyridin-4-yl)-3H-imidazo[4,5-c]pyridin-2-yl)-1H-pyrazolo[4,3-b]pyridin-5-yl)pyridin-3-yl)butyramide]", "values": [{"measurement": "Emax", "result": 31, "unit": "%"}]}
{"smiles": "CCNCc1cncc(-c2ccc3[nH]nc(-c4nc5c(-c6ccccn6)cncc5[nH]4)c3n2)c1", "note": "[Compound 146, N-((5-(3-(7-(Pyridin-2-yl)-3H-imidazo[4,5-c]pyridin-2-yl)-1H-pyrazolo[4,3-b]pyridin-5-yl)pyridin-3-yl)methyl)ethanamine]", "values": [{"measurement": "Emax", "result": 50, "unit": "%"}]}
{"smiles": "CCCCC(=O)Nc1cncc(-c2ccc3[nH]nc(-c4nc5c(-c6ccccn6)cncc5[nH]4)c3n2)c1", "note": "[Compound 159, N-(5-(3-(7-(Pyridin-2-yl)-3H-imidazo[4,5-c]pyridin-2-yl)-1H-pyrazolo[4,3-b]pyridin-5-yl)pyridin-3-yl)pentanamide]", "values": [{"measurement": "Emax", "result": 86, "unit": "%"}, {"measurement": "EC50", "result": 30, "unit": "nM"}]}
{"smiles": "CCC(=O)Nc1cncc(-c2ccc3[nH]nc(-c4nc5c(N6CCCCC6)cncc5[nH]4)c3n2)c1", "note": "[Compound 169, N-(5-(3-(7-(Piperidin-1-yl)-3H-imidazo[4,5-c]pyridin-2-yl)-1H-pyrazolo[4,3-b]pyridin-5-yl)pyridin-3-yl)propionamide]", "values": [{"measurement": "Emax", "result": 70, "unit": "%"}, {"measurement": "EC50", "result": 900, "unit": "nM"}]}
{"smiles": "CN(C)Cc1cncc(-c2ccc3[nH]nc(-c4nc5c(N6CCCCC6)cncc5[nH]4)c3n2)c1", "note": "[Compound 181, N,N-Dimethyl-1-(5-(3-(7-(piperidin-1-yl)-3H-imidazo[4,5-c]pyridin-2-yl)-1H-pyrazolo[4,3-b]pyridin-5-yl)pyridin-3-yl)methanamine]", "values": [{"measurement": "Emax", "result": 84, "unit": "%"}, {"measurement": "EC50", "result": 900, "unit": "nM"}]}
{"smiles": "Cc1cn(-c2cncc3[nH]c(-c4n[nH]c5ccc(-c6cncc(NC(=O)CC(C)C)c6)nc45)nc23)cn1", "note": "[Compound 198, 3-Methyl-N-(5-(3-(7-(4-methyl-1H-imidazol-1-yl)-3H-imidazo[4,5-c]pyridin-2-yl)-1H-pyrazolo[4,3-b]pyridin-5-yl)pyridin-3-yl)butanamide]", "values": [{"measurement": "Emax", "result": 59, "unit": "%"}, {"measurement": "EC50", "result": 100, "unit": "nM"}]}
{"smiles": "Cc1cn(-c2cncc3[nH]c(-c4n[nH]c5ccc(-c6cncc(NC(=O)C(C)(C)C)c6)nc45)nc23)cn1", "note": "[Compound 204, N-(5-(3-(7-(4-methyl-1H-imidazol-1-yl)-3H-imidazo[4,5-c]pyridin-2-yl)-1H-pyrazolo[4,3-b]pyridin-5-yl)pyridin-3-yl)pivalamide]", "values": [{"measurement": "Emax", "result": 150, "unit": "%"}, {"measurement": "EC50", "result": 100, "unit": "nM"}]}
{"smiles": "Cc1cn(-c2cncc3[nH]c(-c4n[nH]c5ccc(-c6cncc(CN7CCCC7)c6)nc45)nc23)cn1", "note": "[Compound 210, 3-(7-(4-Methyl-1H-imidazol-1-yl)-3H-imidazo[4,5-c]pyridin-2-yl)-5-(5-(pyrrolidin-1-ylmethyl)pyridin-3-yl)-1H-pyrazolo[4,3-b]pyridine]", "values": [{"measurement": "Emax", "result": 65, "unit": "%"}, {"measurement": "EC50", "result": 2700, "unit": "nM"}]}
{"smiles": "Cc1cn(-c2cncc3[nH]c(-c4n[nH]c5ccc(-c6cncc(NC(=O)C7CCC7)c6)nc45)nc23)cn1", "note": "[Compound 217, N-(5-(3-(7-(4-Methyl-1H-imidazol-1-yl)-3H-imidazo[4,5-c]pyridin-2-yl)-1H-pyrazolo[4,3-b]pyridin-5-yl)pyridin-3-yl)cyclobutanecarboxamide]", "values": [{"measurement": "Emax", "result": 47, "unit": "%"}]}
{"smiles": "CN1CCN(c2cncc3[nH]c(-c4n[nH]c5ccc(-c6cncc(N)c6)nc45)nc23)CC1", "note": "[Compound 227, 5-(3-(7-(4-Methylpiperazin-1-yl)-3H-imidazo[4,5-c]pyridin-2-yl)-1H-pyrazolo[4,3-b]pyridin-5-yl)pyridin-3-amine]", "values": [{"measurement": "Emax", "result": 65, "unit": "%"}, {"measurement": "EC50", "result": 30, "unit": "nM"}]}
{"smiles": "CC(C)C(=O)Nc1cncc(-c2ccc3[nH]nc(-c4nc5c(N6CCN(C)CC6)cncc5[nH]4)c3n2)c1", "note": "[Compound 233, N-(5-(3-(7-(4-Methylpiperazin-1-yl)-3H-imidazo[4,5-c]pyridin-2-yl)-1H-pyrazolo[4,3-b]pyridin-5-yl)pyridin-3-yl)isobutyramide]", "values": [{"measurement": "Emax", "result": 47, "unit": "%"}]}
{"smiles": "CCNCc1cncc(-c2ccc3[nH]nc(-c4nc5c(-c6ccoc6)cncc5[nH]4)c3n2)c1", "note": "[Compound 286, N-((5-(3-(7-(Furan-3-yl)-3H-imidazo[4,5-c]pyridin-2-yl)-1H-pyrazolo[4,3-b]pyridin-5-yl)pyridin-3-yl)methyl)ethanamine]", "values": [{"measurement": "Emax", "result": 29, "unit": "%"}]}
{"smiles": "CCCCC(=O)Nc1cncc(-c2ccc3[nH]nc(-c4nc5c(-c6ccoc6)cncc5[nH]4)c3n2)c1", "note": "[Compound 299, N-(5-(3-(7-(Furan-3-yl)-3H-imidazo[4,5-c]pyridin-2-yl)-1H-pyrazolo[4,3-b]pyridin-5-yl)pyridin-3-yl)pentanamide]", "values": [{"measurement": "Emax", "result": 74, "unit": "%"}, {"measurement": "EC50", "result": 10, "unit": "nM"}]}
